Legend:
[1] = tested on: CRE BAG 2 cells (β-galactosidase expressing); assay: Doubling time in DME:F12 with a defined sugar, MTT assay; type: cell-based, Mouse; settings: CRE BAG 2, named sugar as only sugar
Protocol: (§1) Mouse fibroblast cell line NIH/3T3 and its β-galactosidase expressing derivative CREBAG 2 available from ATCC, Manassas, Va., were grown in media containing either only glucose or only lactose to show the ability to select for β-galactosidase expressing cells by providing only lactose as a carbon source, which must be cleaved into glucose and galactose by β-galactosidase before it can be utilized by the cell.
(§2) 1:1 Dulbecco's Modified Eagles medium (DME): Ham F12 medium was prepared according to standard formula (Freshney) and with the omission of D-glucose, which was replaced by an equimolar quantity of D-lactose. Cell lines were plated in 2, 12 well plates for each cell type, at a density of 5×10^3 cells per well, in DME containing 10% Calf Serum (CS), and incubated for 4 hours at 37° C. to allow settling and attachment to the plate. Media was then removed and cells were washed once with phosphate buffered saline solution (PBS). […]
(§3) For the MTT assay, cells are incubated with the MTT reagent, which is turned over by live cells to a purple MTT formazan product. […] Absorbence of each sample is measured against a DMSO blank at 570 nm.

[2] = tested on: NIH/3T3 cells; assay: as above; type: cell-based, Mouse; settings: NIH/3T3, named sugar as only sugar
Protocol: as §1, §2, §3

[3] = tested on: X. campestris CL355 (ampicillin resistant, plasmid pGC9114); assay: Differential growth of amp-containing bacteria under PPT block; type: cell-based, Xanthomonas campestris; settings: M9+0.2% glucose+PPT (20 μg/mL)+M0182 (63 μg/mL)
[4] = tested on: X. campestris XN1; assay: Differential growth of non-transformed bacteria under PPT block; type: cell-based, Xanthomonas campestris; settings: M9+0.2% glucose+PPT (20 μg/mL)+M0182 (63 μg/mL)
[5] = tested on: NIH/3T3 cells; assay: Selective ablation, ONPG turnover by remaining cells; type: cell-based; settings: 15 μg/ml, 14 hours, three treatments, ONPG turnover 4 hours
Protocol: (§4) NIH/3T3, CRE BAG 2, or a 50/50 mixture of both cell lines (in co-culture) (Total cell density=6×10^4 cells each) were plated in […]. 12 tissue culture treated glass cover slips were added to each plate, and the cells were allowed to grow in an humidified CO2-incubator (37° C.) for 24 hours. Half the cover slips from each plate were then transferred to separate plates. Cells were treated with 15 μg/ml cycloheximide ? -D-galactopyranoside described in Example 1 (M0147) in media for 14 hours then given fresh media (DME with 10% FCS) for 10 hours. This treatment was repeated twice more, the cover slips were removed from both the M0147 treated and untreated 60 mm plates and placed in 12 well plates. To give an indication of the number of β-galactosidase expressing CREBAG2 cells remaining on the cover slips, the cover slips were incubated with the β-galactosidase substrate ONPG, whose turnover can be measured by the change in absorbance at 420 nm. The cells were rinsed with PBS, then 1 ml of 3.5 mM ONPG in HBSS was added to each well. After 4 hours incubation at 37° C., the solution was removed from each well and the absorbance was measured at 420 nm.

[6] = tested on: 50/50 co-culture of NIH/3T3 and CRE BAG 2 cells; assay: as above; type: cell-based; settings: 15 μg/ml
Protocol: as §4

[7] = tested on: CRE BAG 2 cells; assay: as above; type: cell-based; settings: 15 μg/ml, 14 hours, three treatments, ONPG turnover 4 hours
Protocol: as §4

[8] = tested on: LFY::luc transformed Arabidopsis thaliana ecotype Columbia; assay: Tissue selective ablation of meristem floral initiator cells; type: in vivo; settings: 5 mM spray in 0.01% triton X-100, 2 times per day, 7-20 days
Text: To test for induction of sterility and prevention of cross-pollination of recombinant plants, Arabiposis thaliana ecotype Columbia are transformed with a plasmid construct containing an LEAFY promoter (LFY) driven firefly luciferase (luc) gene by standard leaf disk techniques (Horsch, et al., 1988). The 2.3 kb BamHI fragment spanning the LFY promoter (Blazquez, et al., 1997) is inserted in front of the luc gene in plasmid pGL3 (available from Promega Corp., Madison, Wis.) using the BglII site. Transgenic plants are generated using the vacuum-filtration method of Berthold, et al. (Berthold, et al., 1993). Regenerated kanamycin-resistant T1 plants carrying LFY::luc are grown up in a greenhouse to allow seed to set. T2 seed of strongly expressing T1 lines are grown in sterile culture on MS medium containing kanamycin at 20° C. for 6 to 10 days in 16 hours light: 8 hours dark cycles and afterward in 12 hour light: 12 hour dark cycles. Plants are treated by spray application to the upper leaves and apical shoot sections, with 5 mM D-luciferin-bromoxynil in 0.01% aqueous triton X-100, 2 times per day, beginning on day 4, for a period of 7-20 days.

OC[C@H]1O[C@@H](O[C@H]2[C@H](O)[C@@H](O)C(O)O[C@@H]2CO)[C@H](O)[C@@H](O)[C@H]1O (stereo partly drawn) [lactose, D-lactose]
Doubling Times (Days) of Cells Grown in DME:F12 with 10% dCS [1]: 1.13 days | Doubling Times (Days) of Cells Grown in DME:F12 with 10% dCS [2]: 0.87 days

Phenylacetyl-cephalosporanic acid-glutamate [Example M0182]
final growth, Abs. (600 nm) [3]: 0.471 | final growth, Abs. (600 nm) [4]: 0.101

CC1CC(C)C(=O)[C@H]([C@H](CC2CC(=O)NC(=O)C2)OC2OC(CO)C(O)C(O)C2O)C1 (stereo partly drawn) [Example M0147, 3-[2-(3,5-dimethyl-2-oxocyclohexyl)-2-O-(β-D-galactopyranosyl)ethyl]glutarimide]
Growth (abs @ 420 nm) [5]: .100 | β-galactosidase activity (number of CREBAG2 cells) in co-culture ([6]; to nearly that of NIH/3T3 cells alone): decrease of β-galactosidase activity | Growth (abs @ 420 nm) ([6]; Coculture, 14 hours, three treatments, ONPG turnover 4 hours): .133 | Growth (abs @ 420 nm) [7]: .450

N#Cc1cc(Br)c(OCC2SC(c3nc4ccc(O)cc4s3)=N[C@H]2C(=O)O)c(Br)c1 (stereo partly drawn) [D-luciferin-bromoxynil, D-2-(6′-Hydroxybenzothiazol-2′-yl)-D2-5-(2,6-dibromo-4-cyanophenoxy)methylthiazoline-4-carboxylic acid]
floral initiation in apical shoot meristem [8]: no transition to floral initiation
